# Like-named read-outs stand apart in the source and are kept apart here.
# What was measured:
# [1] = Solubility evaluation in organic solvents; type: physicochemical; conditions: room temperature; for solubility: organic solvent or mixture
# Description: Solubility of the compound was evaluated. As a result, under room temperature, the compound was dissolved into chloroform at 381 g/L (20.5 wt. %), and into toluene at 137 g/L (13.6 wt. %). The compound is clearly found to show high solubility in any of solvent to allow use in an application process.
# Solubility of the compound was evaluated. As a result, under room temperature, the compound was dissolved into chloroform at 43 g/L (2.8 wt. %), and into toluene at 23 g/L (2.6 wt. %). The compound is clearly found to show high solubility in any of solvent to allow use in an application process.
# [2] = Evaluation of chemical stability by UV-Vis spectrum; type: physicochemical
# Description: Then, 0.6951 mg of the compound synthesized in Example 3 was weighed, and dissolved into degassed benzonitrile (25 mL) using a measuring flask in a glove box (solution concentration: 4.92×10^−5 M). A prepared solution thereof was put into a UV cell with a cover, and a UV-Vis spectrum (device used: Jasco V-570 Spectrometer, made by JASCO Corporation) was immediately measured. Subsequently, opening and closing of the cover were repeated several times under atmospheric air to bring the solution into contact with oxygen in air.
# Moreover, a film having a thickness of 100 nanometers formed by performing vacuum deposition of the compound synthesized in Example 3 was allowed to stand for one week in atmospheric air. The results obtained by measuring UV-Vis spectra (device used: Jasco V-570 Spectrometer, made by JASCO Corporation) over time during the period are shown in FIG. 6.
# [3] = chloroform, read-out: Solubility in chloroform
# [4] = toluene, read-out: Solubility in toluene
smiles,measurement,setting,value
"CCCCCCc1ccc2cc3c(cc2c1)sc1cc2cc(CCCCCC)ccc2cc13 [Example 7, 3,9-dihexyldinaphtho[2,3-b:2′,3′-d]thiophene]",melting point,,202 to 202.4 °C
"CCCCCCCCc1ccc2cc3c(cc2c1)sc1cc2cc(CCCCCCCC)ccc2cc13 [Example 8, 3,9-dioctyldinaphtho[2,3-b:2′,3′-d]thiophene]",melting point,,193.7 to 194.8 °C
"CCCCCCCCc1cc2oc3cc(CCCCCCCC)c4ccccc4c3c2c2ccccc12 [Example 18, 5,9-dioctyldinaphtho[2,1-b:1′,2′-d]furan]",solubility,[1]; [3],381 mg/mL
same,solubility,[1]; [4],137 mg/mL
same,Solubility in chloroform,[1]; chloroform,20.5 wt. %
same,Solubility in toluene,[1]; toluene,13.6 wt. %
"c1ccc(-c2cc3oc4cc(-c5ccccc5)c5ccccc5c4c3c3ccccc23)cc1 [Example 20, 5,9-diphenyldinaphtho[2,1-b:1′,2′-d]furan]",solubility,[1]; [3],43 mg/mL
same,solubility,[1]; [4],23 mg/mL
same,Solubility in chloroform,[1]; chloroform,2.8 wt. %
same,Solubility in toluene,[1]; toluene,2.6 wt. %
"CCCCCCCCCCc1ccc2cc3oc4cc5ccc(CCCCCCCCCC)cc5cc4c3cc2c1 [Example 1, 2,10-didecyldinaphtho[2,3-b:2′,3′-d]furan]",melting point,,175 to 176 °C
"CCCCCCc1ccc2cc3c(cc2c1)oc1cc2cc(CCCCCC)ccc2cc13 [Example 5, 3,9-dihexyldinaphtho[2,3-b:2′,3′-d]furan]",melting point,,198.7 to 199.1 °C
"CCCCCCCCCCc1ccc2cc3c(cc2c1)sc1cc2cc(CCCCCCCCCC)ccc2cc13 [Example 6, 3,9-didecyldinaphtho[2,3-b:2′,3′-d]thiophene]",melting point,,182 to 183 °C
"c1ccc2cc3c(cc2c1)sc1cc2ccccc2cc13 [Comparative Example 1, dinaphtho[2,3-b:2′,3′-d]thiophene]",melting point,,282 to 283 °C
"CCCCCCCCCCc1ccc2cc3sc4cc5ccc(CCCCCCCCCC)cc5cc4c3cc2c1 [Example 2, 2,10-didecyldinaphtho[2,3-b:2′,3′-d]thiophene]",melting point,,122 to 123 °C
"CCCCCCCCCCc1ccc2cc3c(cc2c1)oc1cc2cc(CCCCCCCCCC)ccc2cc13 [Example 3, 3,9-didecyldinaphtho[2,3-b:2′,3′-d]furan]",Change of UV-Vis spectrum of solution,"[2]; benzonitrile solution 4.92×10^−5 M, contact with oxygen in air, 3, 24 and 72 hours",no change of the spectrum was observed
same,Chemical stability (conclusion),[2]; solution and film in air,chemically stable
same,Change of UV-Vis spectrum of film,"[2]; vacuum-deposited film 100 nanometers, one week in atmospheric air",no change of the spectrum was observed
same,melting point,,216 to 217 °C
